Earlier results as cited in patent publication US8524285B2, “Nutraceutical mangosteen composition” (DBC, LLC, priority 2002, dated 2013).

Legend:
type A monoamine oxidase = target: T1, type A monoamine oxidase (Homo sapiens, UniProt P21397); conditions: Nakatani et al., 63 Biochemical Pharmacology 73-79 (2002)
T1 sequence (P21397 1-527): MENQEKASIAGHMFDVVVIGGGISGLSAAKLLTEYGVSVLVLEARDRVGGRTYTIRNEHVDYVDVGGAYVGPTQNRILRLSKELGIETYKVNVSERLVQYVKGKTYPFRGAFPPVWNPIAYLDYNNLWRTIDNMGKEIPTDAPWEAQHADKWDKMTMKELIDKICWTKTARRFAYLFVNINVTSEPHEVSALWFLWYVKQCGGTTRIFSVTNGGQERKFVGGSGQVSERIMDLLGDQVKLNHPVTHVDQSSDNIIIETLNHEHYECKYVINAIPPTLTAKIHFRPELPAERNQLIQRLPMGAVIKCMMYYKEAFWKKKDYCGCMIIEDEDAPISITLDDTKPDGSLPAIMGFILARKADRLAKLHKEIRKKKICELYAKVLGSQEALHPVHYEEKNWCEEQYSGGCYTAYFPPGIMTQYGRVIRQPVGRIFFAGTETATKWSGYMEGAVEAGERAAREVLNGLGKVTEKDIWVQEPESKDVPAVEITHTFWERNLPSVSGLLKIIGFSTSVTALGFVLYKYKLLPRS

COX-1 = COX-1 (Homo sapiens, UniProt P23219); conditions: constitutive isoform; Nakatani et al. (2002)
Chain of COX-1 (P23219 24-599): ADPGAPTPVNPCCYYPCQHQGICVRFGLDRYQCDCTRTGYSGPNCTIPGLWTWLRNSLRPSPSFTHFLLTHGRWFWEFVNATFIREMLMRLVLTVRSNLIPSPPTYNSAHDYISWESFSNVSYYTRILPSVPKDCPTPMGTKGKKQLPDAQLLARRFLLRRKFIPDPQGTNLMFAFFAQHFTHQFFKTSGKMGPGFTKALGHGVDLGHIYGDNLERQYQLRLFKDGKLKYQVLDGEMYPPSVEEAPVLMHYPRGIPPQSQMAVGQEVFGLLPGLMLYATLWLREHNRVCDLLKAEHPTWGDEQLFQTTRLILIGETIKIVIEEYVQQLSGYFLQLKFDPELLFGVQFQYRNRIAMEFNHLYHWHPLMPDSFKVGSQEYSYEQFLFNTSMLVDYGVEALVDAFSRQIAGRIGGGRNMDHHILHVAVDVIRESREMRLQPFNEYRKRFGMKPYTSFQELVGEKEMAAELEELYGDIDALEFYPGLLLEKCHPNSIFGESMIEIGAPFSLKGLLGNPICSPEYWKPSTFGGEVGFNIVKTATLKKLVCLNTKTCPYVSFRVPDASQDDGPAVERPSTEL

[1] = tested on: prostaglandin E2 synthesis; conditions: Nakatani et al. (2002)
type B monoamine oxidase = target: T2, type B monoamine oxidase (Homo sapiens, UniProt P27338); conditions: Nakatani et al., 63 Biochemical Pharmacology 73-79 (2002)
T2 sequence (P27338 1-520): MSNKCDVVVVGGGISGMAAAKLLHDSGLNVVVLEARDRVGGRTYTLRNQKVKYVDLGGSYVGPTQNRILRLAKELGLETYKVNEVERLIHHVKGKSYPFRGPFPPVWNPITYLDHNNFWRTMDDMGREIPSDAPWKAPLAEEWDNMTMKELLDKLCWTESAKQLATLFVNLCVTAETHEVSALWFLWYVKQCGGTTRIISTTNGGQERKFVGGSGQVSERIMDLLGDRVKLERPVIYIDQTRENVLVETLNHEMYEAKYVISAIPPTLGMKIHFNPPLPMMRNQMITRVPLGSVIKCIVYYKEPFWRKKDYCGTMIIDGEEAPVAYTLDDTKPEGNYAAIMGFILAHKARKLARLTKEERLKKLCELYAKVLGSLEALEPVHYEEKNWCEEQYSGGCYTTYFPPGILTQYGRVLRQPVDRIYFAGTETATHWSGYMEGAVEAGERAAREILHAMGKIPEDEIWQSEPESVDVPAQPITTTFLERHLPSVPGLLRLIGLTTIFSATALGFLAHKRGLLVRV

Structure (SMILES): CC(C)=CCc1c(O)cc2oc3cc(O)c(O)c(CC=C(C)C)c3c(=O)c2c1O [γ-mangostin]
- inhibition of type A monoamine oxidase (type A monoamine oxidase): inhibits
- inhibition of COX-1 activity (COX-1): directly inhibit
- inhibition of prostaglandin E2 synthesis [1]: inhibits
- inhibition of type B monoamine oxidase (type B monoamine oxidase): inhibits
